Experimental findings from PubChem BioAssay (NCI) are described below.

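Grown in 96-well plates, cells were treated for 48 hours with each compound at five concentrations. Insufficient inhibition: endpoint recorded as highest concentration tested. Abbreviation: GI50, concentration required for 50% inhibition of growth. TGI: concentration producing complete growth inhibition.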

Some test systems named below: K-562 leukemia; ACHN renal; M14 melanoma; SF-295 CNS; TK-10 renal; SK-MEL-28 melanoma; KM12 colon; A549 NSCLC; DMS 273 small cell lung; M19-MEL melanoma.
Common to all, as to test: inhibition of tumour cell growth, NCI panel, 48 h

Turning to `O=C1C=C[C@@]23C[C@@H](Nc4c(O)c5c6c(c42)=NCCC=6C=N5)SC3=C1`, the GI50 in the experiment with K-562 leukemia was 2.66 µM; in the experiment with ACHN renal, 3.35 µM; with M14 melanoma, 2.16 µM; in the experiment with SF-295 CNS, 6.68 µM; in the experiment on SK-MEL-28 melanoma, 7.48 µM; with A549 NSCLC, 8.62 µM. Moreover, the GI50 in the experiment on DMS 273 small cell lung was 2.42 µM; in the experiment on M19-MEL melanoma, 1.71 µM. For the same compound, the TGI in the experiment on K-562 leukemia was over 21.9 µM; with ACHN renal it was 9.16 µM; in the experiment on M14 melanoma, 5.05 µM; in the experiment with SF-295 CNS, 19.3 µM; in the experiment on TK-10 renal, 27.7 µM; with SK-MEL-28 melanoma it was 20.1 µM. Further, the TGI in the experiment with KM12 colon worked out at 18.5 µM; in the experiment on A549 NSCLC it was 24.4 µM; in the experiment with DMS 273 small cell lung it was 8.37 µM; in the experiment on M19-MEL melanoma, 3.24 µM.
In the case of `Nc1c(Br)c(=O)[nH]c(=O)n1COCCO`, the TGI with K-562 leukemia, in the experiment with ACHN renal, in the experiment on M14 melanoma, in the experiment with SF-295 CNS, in the experiment on TK-10 renal and in the experiment on SK-MEL-28 melanoma was over 100 µM each time. Moreover, the TGI in the experiment with KM12 colon, with A549 NSCLC, with DMS 273 small cell lung and in the experiment on M19-MEL melanoma was over 100 µM throughout.
`Nc1ncnc2c1ncn2CC(O)C(=O)O` (stereo not drawn): the TGI in the experiment with K-562 leukemia, with ACHN renal, with M14 melanoma, in the experiment with SF-295 CNS, with TK-10 renal and in the experiment with SK-MEL-28 melanoma was over 100 µM each time. For the same compound, the TGI in the experiment with KM12 colon, in the experiment with A549 NSCLC, with DMS 273 small cell lung and with M19-MEL melanoma was over 100 µM throughout.
Consider `CC(/C(=N/NC(=O)C(N)=O)c1c(Cl)ccc(Cl)c1O)C1(O)C(=O)Nc2ccccc21` (stereo not drawn), for which the TGI with K-562 leukemia, in the experiment on ACHN renal, with M14 melanoma, with SF-295 CNS, in the experiment with TK-10 renal and in the experiment on SK-MEL-28 melanoma was over 100 µM in each case. Also, the TGI in the experiment with KM12 colon, with A549 NSCLC, with DMS 273 small cell lung and in the experiment on M19-MEL melanoma was over 100 µM in each case.
Regarding `CC1CC(c2cccc3c2OCO3)=Nc2ccccc2S1` (stereo not drawn), the TGI in the experiment with K-562 leukemia, in the experiment with ACHN renal, with M14 melanoma, with SF-295 CNS, with TK-10 renal and with SK-MEL-28 melanoma was over 100 µM in each case. Besides, the TGI in the experiment with KM12 colon, in the experiment with A549 NSCLC, in the experiment with DMS 273 small cell lung and in the experiment on M19-MEL melanoma was over 100 µM throughout.
